Chromatographic logP and LogP data for 65 compounds are collected here from patent publication EP2540163A1, “Nematocide N-cyclopropyl-sulfonylamide derivatives” (Bayer CropScience AG, priority 2011, dated 2013).

Structures are written as SMILES.

The nature of the first data set: logP by HPLC on reversed-phase column (C 18), EEC Directive 79/831 Annex V.A8, Method A (0.1% aqueous phosphoric acid / acetonitrile, 43°C). Conditions: c18 reversed-phase hplc; LogP method A: HPLC reversed-phase C 18, 43°C, 0.1% aqueous phosphoric acid / acetonitrile. The data set is classed as physicochemical. Here is the method:
(§1) Calibration was carried out using unbranched alkan-2-ones (having 3 to 16 carbon atoms) with known logP values (determination of the logP values by the retention times using linear interpolation between two successive alkanones).
For orientation: chromatographic logP means a lipophilicity value derived from retention on a column. `O=C(c1cc(Br)c(Br)o1)N(C1CC1)S(=O)(=O)c1ccccc1Cl` [compound 1] yielded a chromatographic logP of 3.58. Still for that read-out and setting: to `Cc1occc1C(=O)N(C1CC1)S(=O)(=O)c1cccc(Cl)c1` [compound 3] belongs 3.27; to `Cc1occc1C(=O)N(C1CC1)S(=O)(=O)c1ccccc1Cl` [compound 4], 2.77; to `Cc1ccsc1C(=O)N(C1CC1)S(=O)(=O)c1cccc(Cl)c1` [compound 13], 3.64.

Compound `Cc1ccsc1C(=O)N(C1CC1)S(=O)(=O)c1ccccc1Cl` [compound 14] showed a chromatographic logP of 3.12. `O=C(c1cc(Br)c(Br)s1)N(C1CC1)S(=O)(=O)c1ccccc1Cl` [compound 15]: the chromatographic logP came out at 4.07. `CCOC(=O)c1[nH]c(C)c(C(=O)N(C2CC2)S(=O)(=O)c2cccc(Cl)c2)c1C` [compound 29] showed a chromatographic logP of 3.46.

Consider `CCOC(=O)c1[nH]c(C)c(C(=O)N(C2CC2)S(=O)(=O)c2ccc(Cl)c(C(F)(F)F)c2)c1C` [compound 31], for which the chromatographic logP came out at 4.08.

In the case of `CCOC(=O)c1[nH]c(C)c(C(=O)N(C2CC2)S(=O)(=O)c2ccc(Cl)cc2Cl)c1C` [compound 32], the chromatographic logP was 3.63. `Cc1nc(C(F)(F)F)c(C(=O)N(C2CC2)S(=O)(=O)c2ccccc2Cl)s1` [compound 59] showed a chromatographic logP of 3.2.

`Cc1ncc(C(=O)N(C2CC2)S(=O)(=O)c2cccc(Cl)c2)s1` [compound 60] came in with a chromatographic logP of 2.8. Regarding `Cc1ncc(C(=O)N(C2CC2)S(=O)(=O)c2ccc(Cl)c(C(F)(F)F)c2)s1` [compound 62], the chromatographic logP turned out to be 3.46. In turn, `Cc1ncc(C(=O)N(C2CC2)S(=O)(=O)c2ccc(Cl)c(Cl)c2)s1` [compound 63] showed a chromatographic logP of 3.33. The compound `Cc1ncc(C(=O)N(C2CC2)S(=O)(=O)c2ccc(Cl)cc2Cl)s1` [compound 64] registered a chromatographic logP of 2.91.

On to `Cc1nc(C(=O)N(C2CC2)S(=O)(=O)c2ccc(Cl)c(Cl)c2)cs1` [compound 70], for which the chromatographic logP worked out at 3.46.

Take `Cc1nc(C(=O)N(C2CC2)S(=O)(=O)c2ccc(Cl)cc2Cl)cs1` [compound 71]: the chromatographic logP amounted to 3.03. `Cc1nn(C)c(F)c1C(=O)N(C1CC1)S(=O)(=O)c1cccc(Cl)c1` [compound 176] yielded a chromatographic logP of 2.82.

Regarding `Cc1nn(C)c(F)c1C(=O)N(C1CC1)S(=O)(=O)c1ccc(Cl)c(Cl)c1` [compound 178], the chromatographic logP came to 3.35.

As for `Cc1nn(C)c(F)c1C(=O)N(C1CC1)S(=O)(=O)c1ccccc1Cl` [compound 180], the chromatographic logP came to 2.34.

The compound `Cc1nn(C)c(F)c1C(=O)N(C1CC1)S(=O)(=O)c1ccc(Cl)cc1Cl` [compound 186] returned a chromatographic logP of 2.94.

The next data set is described as follows: logP by HPLC on reversed-phase column (C 18), EEC Directive 79/831 Annex V.A8, Method B (0.1% aqueous formic acid / acetonitrile, 40°C). Conditions: LogP method B: HPLC reversed-phase C 18, 40°C, 0.1% aqueous formic acid / acetonitrile. The data set is classed as physicochemical. Here is the method: as §1
On to `CCCCCc1ccc(Oc2ccc(S(=O)(=O)N(C(=O)c3cn(C)nc3OCC)C3CC3)c(Br)c2)cc1` [compound 561], for which the LogP is given as 5,8.

The data set is the same for the next values; noted with them: c18 reversed-phase hplc; LogP method B: HPLC reversed-phase C 18, 40°C, 0.1% aqueous formic acid / acetonitrile.
With `CCOc1nn(C)cc1C(=O)N(C1CC1)S(=O)(=O)c1ccc(Oc2ccc(OC)c(OC)c2)c(Cl)c1` [compound 528], the chromatographic logP is 3.5. In the case of `CCOc1nn(C)cc1C(=O)N(C1CC1)S(=O)(=O)c1ccc(Oc2ccc(OC)cc2)cc1Cl` [compound 529], the chromatographic logP was found to be 3.5. The compound `CCOc1nn(C)cc1C(=O)N(C1CC1)S(=O)(=O)c1ccc(Oc2ccccc2)cc1Cl` [compound 530] registered a chromatographic logP of 3.6.

In turn, `CCOc1nn(C)cc1C(=O)N(C1CC1)S(=O)(=O)c1ccc(Oc2ccc(OC)cc2)c(Cl)c1` [compound 531] registered a chromatographic logP of 3.8.

Take `CCOc1nn(C)cc1C(=O)N(C1CC1)S(=O)(=O)c1ccc(Oc2cccc(N(C)C)c2)cc1Cl` [compound 532]: the chromatographic logP worked out at 3.8. The same measure, in the same setting: to `CCOc1nn(C)cc1C(=O)N(C1CC1)S(=O)(=O)c1ccc(Oc2ccccc2)c(Cl)c1` [compound 533] belongs 3.9; to `CCOc1nn(C)cc1C(=O)N(C1CC1)S(=O)(=O)c1ccc(Oc2cccc(Br)c2)cc1Cl` [compound 534], 3.9.

The compound `CCOc1nn(C)cc1C(=O)N(C1CC1)S(=O)(=O)c1ccc(Oc2ccc(Cl)cc2)cc1Cl` [compound 535] registered a chromatographic logP of 4. Same read-out and setting: then `CCOc1nn(C)cc1C(=O)N(C1CC1)S(=O)(=O)c1ccc(Oc2ccc(F)c(Cl)c2)cc1Cl` [compound 536], with 4; and `CCOc1nn(C)cc1C(=O)N(C1CC1)S(=O)(=O)c1ccc(Oc2ccccc2Cl)c(Cl)c1` [compound 537], with 4.1; and `CCOc1nn(C)cc1C(=O)N(C1CC1)S(=O)(=O)c1ccc(Oc2ccc(C(F)(F)F)cc2)cc1Cl` [compound 538], with 4.1. Regarding `CCOc1nn(C)cc1C(=O)N(C1CC1)S(=O)(=O)c1ccc(Oc2cccc(N(C)C)c2)c(Cl)c1` [compound 539], the chromatographic logP came to 4.1. The same measure, in the same setting: then `CCOc1nn(C)cc1C(=O)N(C1CC1)S(=O)(=O)c1ccc(Oc2ccc(C)cc2)c(Cl)c1` [compound 542], with 4.3; and `CCOc1nn(C)cc1C(=O)N(C1CC1)S(=O)(=O)c1ccc(Oc2ccc(Cl)cc2Cl)cc1Cl` [compound 543], with 4.3. Regarding `CCOc1nn(C)cc1C(=O)N(C1CC1)S(=O)(=O)c1ccc(Oc2ccc(Br)c(Cl)c2)cc1Cl` [compound 544], the chromatographic logP worked out at 4.3. The same measure, in the same setting: then `CCOc1nn(C)cc1C(=O)N(C1CC1)S(=O)(=O)c1ccc(Oc2ccc(Cl)cc2)c(Cl)c1` [compound 545], with 4.3; and `CCOc1nn(C)cc1C(=O)N(C1CC1)S(=O)(=O)c1ccc(Oc2cccc(Cl)c2)c(Cl)c1` [compound 546], with 4.3; and `CCOc1nn(C)cc1C(=O)N(C1CC1)S(=O)(=O)c1ccc(Oc2cccc(C(F)(F)F)c2F)c(Cl)c1` [compound 547], with 4.3.

As for `CCOc1nn(C)cc1C(=O)N(C1CC1)S(=O)(=O)c1ccc(Oc2ccc(F)c(Cl)c2)c(Cl)c1` [compound 548], the chromatographic logP is 4.4. This chromatographic logP and that of the compound before are within 0.2 log units of each other. The same measure, in the same setting: then `CCOc1nn(C)cc1C(=O)N(C1CC1)S(=O)(=O)c1ccc(Oc2cccc(C(F)(F)F)c2)c(Cl)c1` [compound 549], with 4.4; and `CCOc1nn(C)cc1C(=O)N(C1CC1)S(=O)(=O)c1ccc(Oc2ccc(C(F)(F)F)cc2)c(Cl)c1` [compound 550], with 4.4; and `CCOc1nn(C)cc1C(=O)N(C1CC1)S(=O)(=O)c1ccc(Oc2cccc(Br)c2)c(Cl)c1` [compound 551], with 4.5.

With `CCOc1nn(C)cc1C(=O)N(C1CC1)S(=O)(=O)c1ccc(Oc2ccc(Br)cc2)c(Cl)c1` [compound 552], the chromatographic logP stood at 4.5. For the compound `CCOc1nn(C)cc1C(=O)N(C1CC1)S(=O)(=O)c1ccc(Oc2cccc(OC(F)(F)F)c2)c(Cl)c1` [compound 554], the chromatographic logP came to 4.5. With `CCOc1nn(C)cc1C(=O)N(C1CC1)S(=O)(=O)c1ccc(Oc2ccc(Cl)cc2Cl)c(Cl)c1` [compound 555], the chromatographic logP worked out at 4.7. The same measure, in the same setting: to `CCOc1nn(C)cc1C(=O)N(C1CC1)S(=O)(=O)c1ccc(Oc2ccc(Cl)c(C(F)(F)F)c2)c(Cl)c1` [compound 556] belongs 4.8.

`CCOc1nn(C)cc1C(=O)N(C1CC1)S(=O)(=O)c1ccc(Oc2ccc(Br)c(Cl)c2)c(Cl)c1` [compound 558]: the chromatographic logP is 4.9. This chromatographic logP and that of the compound before are within 0.2 log units of each other. On the same count and under the same terms, to `CCOc1nn(C)cc1C(=O)N(C1CC1)S(=O)(=O)c1ccc(Oc2cc(Cl)cc(Cl)c2)c(Cl)c1` [compound 559] belongs 5; to `CCCCCc1ccc(Oc2ccc(S(=O)(=O)N(C(=O)c3cn(C)nc3OCC)C3CC3)c(Cl)c2)cc1` [compound 560], 5.6. `Cc1nn(C)c(C(=O)N(C2CC2)S(=O)(=O)c2cccc(Cl)c2Cl)c1Cl` [compound 586]: the chromatographic logP stood at 3.7. For the compound `Cc1nocc1C(=O)N(C1CC1)S(=O)(=O)c1cccc(Cl)c1Cl` [compound 599], the chromatographic logP is 3.

`Cc1nocc1C(=O)N(C1CC1)S(=O)(=O)c1ccc(Cl)c(Cl)c1Cl` [compound 600] displayed a chromatographic logP of 3.6.

In the case of `Cc1oncc1C(=O)N(C1CC1)S(=O)(=O)c1cccc(Cl)c1Cl` [compound 603], the chromatographic logP was 2.2.

`Cc1oncc1C(=O)N(C1CC1)S(=O)(=O)c1ccc(Cl)c(Cl)c1Cl` [compound 604] showed a chromatographic logP of 2.6. The same measure, in the same setting: then `O=C(c1cccnc1Cl)N(C1CC1)S(=O)(=O)c1cccc(Cl)c1Cl` [compound 645], with 3.2; and `O=C(c1cccnc1Cl)N(C1CC1)S(=O)(=O)c1ccc(Oc2ccccc2)cc1` [compound 646], with 3.7.

The compound `O=C(c1cccnc1Cl)N(C1CC1)S(=O)(=O)c1ccc(Cl)c(Cl)c1Cl` [compound 647] yielded a chromatographic logP of 3.7. `O=C(c1cccnc1F)N(C1CC1)S(=O)(=O)c1cccc(Cl)c1Cl` [compound 649] yielded a chromatographic logP of 2.4. `Cc1cnn(C)c1C(=O)N(C1CC1)S(=O)(=O)c1cccc(Cl)c1Cl` [compound 658] registered a chromatographic logP of 3.1.

The compound `Cc1cnn(C)c1C(=O)N(C1CC1)S(=O)(=O)c1ccc(Cl)c(Cl)c1Cl` [compound 659] returned a chromatographic logP of 3.6. Same read-out and setting: then `Cn1ncc(I)c1C(=O)N(C1CC1)S(=O)(=O)c1cccc(Cl)c1Cl` [compound 662], with 2.8; and `Cn1ncc(I)c1C(=O)N(C1CC1)S(=O)(=O)c1ccc(Cl)c(Cl)c1Cl` [compound 663], with 3.4.

Staying with this data set, now noted: c18 reversed-phase hplc; LogP method B: HPLC, 40°C, 0.1% aqueous formic acid and acetonitrile, gradient 10% to 90% acetonitrile.
Compound `COC(=O)C1(N(C(=O)c2c(C(F)(F)F)nn(C)c2F)S(=O)(=O)c2ccc(Cl)c(Cl)c2Cl)CC1` [compound 667] returned a chromatographic logP of 4.04. Still for that read-out and setting: then `Cc1nn(C)c(F)c1C(=O)N(C1(c2ccccc2)CC1)S(=O)(=O)c1cccc(Cl)c1Cl` [compound 670], with 4.1.
